From patent US9155706B2, “Pharmaceutical composition” (Novartis AG, priority 2010, dated 2015)
“And” between values parts separate entries of the source, which are not always exact repeats. Equal entries are not always repeated. “Also recorded” adds a separate entry of the source. Where two headings read alike, the source gives them in different places.

Assays:
[1] = Repeat dose toxicokinetics and toxicology, oral gavage, DMSO solvate of Compound, rat; conditions: for Cmax End of Study: Sprague Dawley, rat, in vivo, po, 0.25 mg/m2
Description: (§1) The pharmacokinetics, absorption, distribution, metabolism and elimination of N-{3-[3-cyclopropyl-5-(2-fluoro-4-iodo-phenylamino)-6, 8-dimethyl-2,4,7-trioxo-3,4,6,7-tetrahydro-2H-pyrido[4,3-d]pyrimidin-1-yl]phenyl}acetamide and solvates thereof, including the dimethyl sulfoxide solvate (collectively referred to as “Compound” when used in connection with animal models or human clinical trials), were investigated in a series of in vitro investigations and with in vivo oral (gavage) and IV studies in the Balb/c mouse, Sprague Dawley rat (unless otherwise stated), beagle dog and cynomolgus monkey using unlabeled and [14C]-labeled Compound. A list of these studies is included, along with subsequently obtained human clinical results, in Table 1 below. For in vivo studies, various formulations were used. For oral dosing, solutions or suspensions were administered.
(§2) Dose range studies in rats at doses up to 1 mg/kg/day for 14 days and in dogs at doses up to 0.5 mg/kg/day (or 10 mg/m2/day) for 10 days were conducted prior to the studies.
(§3) In vivo toxicology studies were conducted in Sprague Dawley rats and beagle dogs by oral gavage (Table 3). Studies were conducted using the DMSO solvate of Compound formulated as a suspension in 1.5% hydroxypropylmethylcellulose, 5% mannitol, and 0.2% sodium lauryl sulfate. For all toxicology studies, doses are expressed based on body surface area (mg/m2). In general, to convert mg/m2 doses to mg/kg, divide the doses by 8 for rats and 20 for dogs.

[2] = female, beagle, dog, in vivo, po
Description: as §1, §2
as §3, with “In general, to convert mg/m2 doses to mg/kg, divide the doses by 8 for rats and 20 for dogs.” left out

clinical = conditions: human, plasma, oral, 2 mg
Description: (§4) Preliminary PK data was obtained in subjects with solid tumors following single-and repeat-dose oral administration of Compound tablets. The dose-escalation part of the first-time-in-human study (FTIH), involved administration of Compound in one of 3 main dosing regimens: • QD dosing with the designated dose for 21 days, followed by 7 days without drug; • Administration of a loading dose (LD) on both Day 1 and Day 2, or on Day 1 only, followed by continuous QD dosing with the designated dose; or • Administration of continuous QD dosing without a loading dose.
(§5) Additional blood samples were taken pre-dose on Day 15 of Cycle 1 and Day 1 of further cycles in Part 2 and Part 3 to assess steady state trough levels of Compound.

[3] = Single-dose (Day 1) pharmacokinetics of Compound tablets, first-time-in-human study; conditions: fasting; for AUC(0-t): AUC (0-24); for Tmax: median (range)
Description: Preliminary PK data was obtained in subjects with solid tumors following single-and repeat-dose oral administration of Compound tablets.

[4] = Repeat-dose (Day 15) pharmacokinetics of Compound tablets, first-time-in-human study; conditions: individual values
Description: as §4, §5

[5] = Photostability: light exposure under ICH Q1B conditions, impurities by HPLC; type: physicochemical
Description: Uncoated tablets, 0.5, 1 and 2 mg were exposed to ICH Photostability conditions and tested to provide baseline impurity information for comparison.

[6] = Toxic effects at high doses (statement); type: in vivo; conditions: when administered in high doses
[7] = Exposure and absorption upon in vivo administration (statement)
[8] = Desolvation during handling and formulation (statement); type: physicochemical
[9] = Solubility (comparative statement); type: physicochemical
[10] = single dose Day 1, oral tablets, 0.5 mg, individual values
[11] = single dose Day 1, oral tablets, 1.0 mg, individual values

CC(=O)Nc1cccc(-n2c(=O)n(C3CC3)c(=O)c3c(Nc4ccc(I)cc4F)n(C)c(=O)c(C)c32)c1 [Compound, N-{3-[3-cyclopropyl-5-(2-fluoro-4-iodo-phenylamino)-6,8-dimethyl-2,4,7-trioxo-3,4,6,7-tetrahydro-2H-pyrido[4,3-d]pyrimidin-1-yl]phenyl}acetamide]
maximum tolerated dose (MTD) ([1]; Rat, 3 weeks, oral, two doses marked MTD, sex shown by bolding that is lost): 0.5 mg/m^2/day and 1 mg/m^2/day
Cmax End of Study ([1]; female): 8.03 ng/mL
Cmax End of Study ([1]; male): 5.34 ng/mL
Cmax End of Study ([2]; 0.3 mg/m2): 7.24 ng/mL
Cmax End of Study ([2]; 0.45 mg/m2): 9.78 ng/mL
half-life (clinical): ~120 h
C24 ([3]; Day 1, oral tablets, 6.0 mg loading dose, mean (CV %) and range): (3.4-11.1) ng/mL
C24 ([3]; Day 1, oral tablets, 8.0 mg loading dose, mean (CV %) and range): (2.98-12.1) ng/mL
C24 ([3]; Day 1, oral tablets, 10.0 mg loading dose, mean (CV %) and range): (21.0-29.0) ng/mL
Cmax ([3]; human, plasma, po, 0.5 mg, Cmax, single dose Day 1, oral tablets, 0.5 mg, individual values): 0.85 ng/mL
AUC(0-t) ([3]; human, plasma, po, 1 mg, single dose Day 1, oral tablets, 1.0 mg, individual values): 13.5 ng·h/mL
Cmax ([3]; human, plasma, po, 1 mg, Cmax, single dose Day 1, oral tablets, 1.0 mg, individual values): 1.71 ng/mL
AUC(0-t) ([3]; human, plasma, po, 2 mg, single dose Day 1, oral tablets, 2.0 mg, mean (CV %) and range): 44.2 to 77.4 ng·h/mL
Cmax ([3]; human, plasma, po, 2 mg, Cmax, single dose Day 1, oral tablets, 2.0 mg, mean (CV %) and range): 5.4 to 8.81 ng/mL
Tmax ([3]; human, plasma, po, 2 mg, single dose Day 1, oral tablets, 2.0 mg): 1.5 to 2 h
AUC(0-t) ([3]; human, plasma, po, 2.5 mg, single dose Day 1, oral tablets, 2.5 mg, mean (CV %) and range): 47.3 to 95.9 ng·h/mL
Cmax ([3]; human, plasma, po, 2.5 mg, Cmax, single dose Day 1, oral tablets, 2.5 mg, mean (CV %) and range): 6.7 to 16.2 ng/mL
Tmax ([3]; human, plasma, po, 2.5 mg, single dose Day 1, oral tablets, 2.5 mg): 1 to 2 h
AUC(0-t) ([3]; human, plasma, po, 3 mg, single dose Day 1, oral tablets, 3.0 mg, mean (CV %) and range): 27.6 to 188 ng·h/mL
Cmax ([3]; human, plasma, po, 3 mg, Cmax, single dose Day 1, oral tablets, 3.0 mg, mean (CV %) and range): 2.82 to 22.9 ng/mL
Tmax ([3]; human, plasma, po, 3 mg, single dose Day 1, oral tablets, 3.0 mg): 0.5 to 3 h
AUC(0-t) ([3]; human, plasma, po, 4 mg, single dose Day 1, oral tablets, 4.0 mg, mean (CV %) and range): 167 to 275 ng·h/mL
Cmax ([3]; human, plasma, po, 4 mg, Cmax, single dose Day 1, oral tablets, 4.0 mg, mean (CV %) and range): 16.3 to 34.2 ng/mL
AUC(0-t) ([3]; human, plasma, po, 6 mg, Day 1, oral tablets, 6.0 mg loading dose, mean (CV %) and range): 96.7 to 320 ng·h/mL
Cmax ([3]; human, plasma, po, 6 mg, Cmax, Day 1, oral tablets, 6.0 mg loading dose, mean (CV %) and range): 6.91 to 37.2 ng/mL
Tmax ([3]; human, plasma, po, 6 mg, Day 1, oral tablets, 6.0 mg loading dose): 1.05 to 8.08 h
AUC(0-t) ([3]; human, plasma, po, 8 mg, Day 1, oral tablets, 8.0 mg loading dose, mean (CV %) and range): 62.9 to 308 ng·h/mL
Cmax ([3]; human, plasma, po, 8 mg, Cmax, Day 1, oral tablets, 8.0 mg loading dose, mean (CV %) and range): 4.28 to 32 ng/mL
Tmax ([3]; human, plasma, po, 8 mg, Day 1, oral tablets, 8.0 mg loading dose): 1 to 24 h
AUC(0-t) ([3]; human, plasma, po, 10 mg, Day 1, oral tablets, 10.0 mg loading dose, mean (CV %) and range): 773 to 979 ng·h/mL
Cmax ([3]; human, plasma, po, 10 mg, Cmax, Day 1, oral tablets, 10.0 mg loading dose, mean (CV %) and range): 65.1 to 87.8 ng/mL
Tmax ([3]; human, plasma, po, 10 mg, Day 1, oral tablets, 10.0 mg loading dose): 1 to 2 h
AUC (0-24) [3, 10]: 2.13 ng·h/mL and 9.69 ng·h/mL
C24 [3, 10]: 0 ng/mL and 0.31 ng/mL
AUC (0-24) [3, 11]: 12.2 ng·h/mL
C24 [3, 11]: 0.38 ng/mL and 0.27 ng/mL
Cmax [3, 11]: 1.96 ng/mL
C24 ([3]; single dose Day 1, oral tablets, 2.0 mg, mean (CV %) and range): (1.15-1.93) ng/mL
C24 ([3]; single dose Day 1, oral tablets, 2.5 mg, mean (CV %) and range): (1.25-3.10) ng/mL
C24 ([3]; single dose Day 1, oral tablets, 3.0 mg, mean (CV %) and range): (0.75-13.4) ng/mL
C24 ([3]; single dose Day 1, oral tablets, 4.0 mg, mean (CV %) and range): (5.53-14.9) ng/mL
AR (Accumulation Ratio) ([4]; repeat dose Day 15, 0.50 mg): 28.3 and 10.2
T1/2, eff (Effective Half-Life) ([4]; repeat dose Day 15, 0.50 mg): 461 h and 161 h
AR (Accumulation Ratio) ([4]; repeat dose Day 15, 1 mg): 18.1 and 7.8
T1/2, eff (Effective Half-Life) ([4]; repeat dose Day 15, 1 mg): 293 h and 122 h
AR (Accumulation Ratio) ([4]; repeat dose Day 15, 4 mg): 2.42 and 3.45
T1/2, eff (Effective Half-Life) ([4]; repeat dose Day 15, 4 mg): 48.5 h

CC(=O)Nc1cccc(-n2c(=O)n(C3CC3)c(=O)c3c(Nc4ccc(I)cc4F)n(C)c(=O)c(C)c32)c1 [Compound A, N-{3-[3-cyclopropyl-5-(2-fluoro-4-iodo-phenylamino)-6,8-dimethyl-2,4,7-trioxo-3,4,6,7-tetrahydro-2H-pyrido[4,3-d]pyrimidin-1-yl]phenyl}acetamide dimethyl sulfoxide solvate]
photo-stability (in words) [5]: sensitive to photo-induced degradation; also recorded: can suffer from photo-instability
toxic effects [6]: can cause toxic effects when administered in high doses
exposure and absorption [7]: poor exposure and absorption
desolvation to unsolvated Compound B [8]: can undergo desolvation

CC(=O)Nc1cccc(-n2c(=O)n(C3CC3)c(=O)c3c(Nc4ccc(I)cc4F)n(C)c(=O)c(C)c32)c1 [Compound B, N-{3-[3-cyclopropyl-5-(2-fluoro-4-iodo-phenylamino)-6,8-dimethyl-2,4,7-trioxo-3,4,6,7-tetrahydro-2H-pyrido[4,3-d]pyrimidin-1-yl]phenyl}acetamide]
solubility compared with Compound A [9]: much less soluble than Compound A
